From ChEMBL document CHEMBL5338746, “New Generation of sGC Stimulators: Discovery of Imidazo[1,2-a]pyridine Carboxamide BAY 1165747 (BAY-747), a Long-Acting Soluble Guanylate Cyclase Stimulator for the Treatment of Resistant Hypertension” (J Med Chem, 2023)
Activity calls are given as the source filed them. The rule behind the calls is not given here.

Tests used:
[1] = Metabolic stability in rat hepatocytes assessed as clearance measured upto 90 mins by LC-MS/MS analysis; assay type: ADME, cell-based, Hepatocyte
[2] = biological target: T1, Soluble guanylate cyclase alpha1/beta1 complex (Rattus norvegicus) (UniProt P19686+P20595); assay: Stimulation of recombinant rat sGC alpha1/beta1 expressed in CHO cells assessed as formation of cGMP from GTP by measuring concentration for >3-fold increase in the basal luminescence value by luminescence based analysis; assay type: cell-based; conditions: filed as activator
Rattus norvegicus [3] = assay: Antihypertensive activity in spontaneous hypertensive Wistar rat assessed as decrease in systolic blood pressure at 0.3 mg/kg, iv administered as bolus injection measured for 21 days by tail-cuff method (reference value: -12 mmHg); assay type: functional; conditions: time 21 day
Rattus norvegicus [4] = assay: Anti-hypertensive activity against L-NAME treated renin transgenic Wistar rat cardiovascular disease model assessed as change in kidney to body weight at 0.3 mg/kg administered once daily via oral gavage upto 21 days (reference value: 3.79 +/- 0.1 g/kg); assay type: functional; conditions: time <= 21 day
Aorta = assay: Vasorelaxant activity in New Zealand White rabbits aortic rings assessed as reduction in phenylephrine-induced contraction measured after 30 mins; assay type: functional, tissue-based; conditions: Oryctolagus cuniculus, 0.5 h
Rattus norvegicus [5] = assay: Anti-hypertensive activity against L-NAME treated renin transgenic Wistar rat cardiovascular disease model assessed as change in heart to body weight at 3 mg/kg administered once daily via oral gavage upto 21 days (reference value: 4.64+/-0.3 g/Kg); assay type: functional; conditions: time <= 21 day
Rattus norvegicus [6] = assay: Anti-hypertensive activity against L-NAME treated renin transgenic Wistar rat cardiovascular disease model assessed as increase in plasma cGMP level at 3 mg/kg administered once daily via oral gavage upto 21 days (reference value: 572+/-350 pmol/mL); assay type: functional; conditions: time <= 21 day
Rattus norvegicus [7] = assay: Antihypertensive activity in spontaneous hypertensive Wistar rat model assessed as reduction in blood pressure at 0.3 mg/kg, po measured after 24 hrs by radiotelemetry analysis; assay type: functional, organism-based
Rattus norvegicus [8] = assay: Antihypertensive activity in spontaneous hypertensive Wistar rat assessed as decrease in systolic blood pressure at 0.1 mg/kg, iv administered as bolus injection measured for 21 days by tail-cuff method (reference value: -12 mmHg); assay type: functional; conditions: time 21 day
Rattus norvegicus [9] = assay: Antihypertensive activity in spontaneous hypertensive Wistar rat model assessed as reduction in blood pressure at 1 mg/kg, po measured after 24 hrs by radiotelemetry analysis; assay type: functional, organism-based
Rattus norvegicus [10] = assay: Antihypertensive activity against L-NAME treated renin transgenic Wistar rat cardiovascular disease model assessed as reduction in blood pressure at 0.3 mg/kg administered via oral gavage once daily for 28 days; assay type: functional, organism-based; conditions: time 28.0 day
Rattus norvegicus [11] = assay: Anti-hypertensive activity against L-NAME treated renin transgenic Wistar rat cardiovascular disease model assessed as change in kidney to body weight at 3 mg/kg administered once daily via oral gavage upto 21 days (reference value: 3.79 +/- 0.1 g/kg); assay type: functional; conditions: time <= 21 day
Rattus norvegicus [12] = assay: Antihypertensive activity against L-NAME treated renin transgenic Wistar rat cardiovascular disease model assessed as body weight gain at 0.3 mg/kg administered via oral gavage once daily for 21 days; assay type: functional, organism-based; conditions: time 21.0 day
Rattus norvegicus [13] = assay: Antihypertensive activity against L-NAME treated renin transgenic Wistar rat cardiovascular disease model assessed as body weight gain at 3 mg/kg administered via oral gavage once daily for 21 days; assay type: functional, organism-based; conditions: time 21.0 day
Rattus norvegicus [14] = assay: Anti-hypertensive activity against L-NAME treated renin transgenic Wistar rat cardiovascular disease model assessed as reduction in plasma BNP level at 0.3 mg/kg administered once daily via oral gavage upto 21 days (reference value: 403+/-325 pg/ml); assay type: functional; conditions: time <= 21 day
Rattus norvegicus [15] = assay: Anti-hypertensive activity against L-NAME treated renin transgenic Wistar rat cardiovascular disease model assessed as increase in survival at 0.3 mg/kg administered once daily via oral gavage upto 21 days (reference value: 21%); assay type: functional; conditions: time <= 21 day
Rattus norvegicus [16] = assay: Antihypertensive activity against L-NAME treated renin transgenic Wistar rat cardiovascular disease model assessed as reduction in mortality rate at 0.3 mg/kg administered via oral gavage once daily for 21 days; assay type: functional, organism-based; conditions: time 21.0 day
Rattus norvegicus [17] = assay: Anti-hypertensive activity against L-NAME treated renin transgenic Wistar rat cardiovascular disease model assessed as change in heart to body weight at 0.3 mg/kg administered once daily via oral gavage upto 21 days (reference value: 4.64+/-0.3 g/Kg); assay type: functional; conditions: time <= 21 day
Rattus norvegicus [18] = assay: Antihypertensive activity in spontaneous hypertensive Wistar rat model assessed as reduction in blood pressure po administered bolus injection by radiotelemetry analysis; assay type: functional, organism-based; conditions: dose 0.3 mg/kg
Rattus norvegicus [19] = assay: Antihypertensive activity in spontaneous hypertensive Wistar rat assessed as decrease in systolic blood pressure at 0.03 mg/kg, iv administered as bolus injection measured for 21 days by tail-cuff method (reference value: -12 mmHg); assay type: functional; conditions: time 21 day
Rattus norvegicus [20] = assay: Antihypertensive activity in spontaneous hypertensive Wistar rat assessed as decrease in systolic blood pressure at 0.01 mg/kg, iv administered as bolus injection measured for 21 days by tail-cuff method (reference value: -12 mmHg); assay type: functional; conditions: time 21 day
Rattus norvegicus [21] = assay: Antihypertensive activity against L-NAME treated renin transgenic Wistar rat cardiovascular disease model assessed as reduction in mortality rate at 3 mg/kg administered via oral gavage once daily for 21 days; assay type: functional, organism-based; conditions: time 21.0 day
Rattus norvegicus [22] = assay: Antihypertensive activity in spontaneous hypertensive Wistar rat model assessed as reduction in blood pressure at 0.3 to 3.0 mg/kg, po measured after 2 hrs by radiotelemetry analysis; assay type: functional; design: scale not given: the % may be the effect or the level left; conditions: dose 0.3-3 mg/kg
Rattus norvegicus [23] = assay: Antihypertensive activity in spontaneous hypertensive Wistar rat assessed as decrease in systolic blood pressure at 0.3 mg/kg, iv administered as bolus injection measured for 21 days by tail-cuff method; assay type: functional; conditions: time 21 day
Rattus norvegicus [24] = assay: Antihypertensive activity against L-NAME treated renin transgenic Wistar rat cardiovascular disease model assessed as reduction in blood pressure at 3 mg/kg administered via oral gavage once daily for 28 days; assay type: functional, organism-based; conditions: time 28.0 day
Rattus norvegicus [25] = assay: Antihypertensive activity in spontaneous hypertensive Wistar rat assessed as decrease in systolic blood pressure iv administered as bolus injection measured for 21 days by tail-cuff method; assay type: functional, organism-based; conditions: dose 0.3-3 mg/kg, time 21.0 day
Rattus norvegicus [26] = assay: Anti-hypertensive activity against L-NAME treated renin transgenic Wistar rat cardiovascular disease model assessed as increase in plasma cGMP level at 0.3 mg/kg administered once daily via oral gavage upto 21 days (reference value: 572+/-350 pmol/mL); assay type: functional; conditions: time <= 21 day
Rattus norvegicus [27] = assay: Anti-hypertensive activity against L-NAME treated renin transgenic Wistar rat cardiovascular disease model assessed as reduction in plasma BNP level at 3 mg/kg administered once daily via oral gavage upto 21 days (reference value: 403+/-325 pg/ml); assay type: functional; conditions: time <= 21 day
Rattus norvegicus [28] = assay: Antihypertensive activity in spontaneous hypertensive Wistar rat assessed as decrease in systolic blood pressure at 0.003 mg/kg, iv administered as bolus injection measured for 21 days by tail-cuff method (reference value: -12 mmHg); assay type: functional; conditions: time 21 day
Rattus norvegicus [29] = assay: Anti-hypertensive activity against L-NAME treated renin transgenic Wistar rat cardiovascular disease model assessed as increase in survival at 3 mg/kg administered once daily via oral gavage upto 21 days (reference value: 21%); assay type: functional; conditions: time <= 21 day
[30] = biological target: T1, Soluble guanylate cyclase alpha1/beta1 complex (Rattus norvegicus); assay: Stimulation of recombinant rat sGC alpha1/beta1 expressed in CHO cells assessed as formation of cGMP from GTP in presence of NO donor SNAP by measuring basal luminescence value by luminescence based analysis; assay type: cell-based; conditions: filed as activator, dose 300.0 nM
CHO = assay: Stimulation of recombinant rat sGC alpha1/beta1 expressed in CHO cells assessed as formation of cGMP from GTP in presence of […] ODQ by measuring basal luminescence value by luminescence based analysis; assay type: cell-based; conditions: dose 300.0 nM, time 3.0 hrs

CCCC[C@H](CO)NC(=O)c1c(C2CC2)nc2c(OCc3c(F)cccc3F)cccn12
CLhep predicted [1]: 36.7 mL/min/kg | MEC [2]: 0.3 µM

CCCC[C@H](CO)NC(=O)c1c(C)nc2c(OCc3c(F)cccc3F)cc(C3CC3)cn12
CLhep predicted [1]: 51.7 mL/min/kg | MEC [2]: 1 µM

CCCC[C@H](CO)NC(=O)c1c(C)nc2c(OCc3c(F)cccc3F)cc(C)cn12
CLhep predicted [1]: 56.7 mL/min/kg | MEC [2]: 0.01 µM

CCCC[C@H](CO)NC(=O)c1c(C)nc2c(OCCC(C)C)cccn12
CLhep predicted [1]: 48.3 mL/min/kg | MEC [2]: 1 µM

CCCC[C@H](CO)NC(=O)c1c(C)nc2c(OCc3ccccc3)cccn12
CLhep predicted [1]: 38.3 mL/min/kg | MEC [2]: 1 µM

CCCC[C@H](CO)NC(=O)c1c(C)nc2c(OCc3c(C)cccc3C)cccn12
CLhep predicted [1]: 43.3 mL/min/kg | MEC [2]: 3 µM

CC[C@](C)(N)CNC(=O)c1c(C)nc2c(OCc3c(F)cccc3F)cc(C)cn12
Activity (Rattus norvegicus [3]): -86 mmHg | Activity (Rattus norvegicus [4]): 3.72 g/kg | IC50 (Aorta): 27 nM | Activity (Rattus norvegicus [5]): 3.64 g/kg | Activity (Rattus norvegicus [6]): 2798 pmol/mL | Activity (Rattus norvegicus [7]): Active | Activity (Rattus norvegicus [8]): -70 mmHg | Activity (Rattus norvegicus [9]): Active | Activity (Rattus norvegicus [10]): inactive | Activity (Rattus norvegicus [11]): 3.72 g/kg | Activity (Rattus norvegicus [12]): Active | Activity (Rattus norvegicus [13]): Active | Activity (Rattus norvegicus [14]): 284 pg/mL | Activity (Rattus norvegicus [15]): 44% | Activity (Rattus norvegicus [16]): Active | Activity (Rattus norvegicus [17]): 4.03 g/kg | Activity (Rattus norvegicus [18]): Dose-Dependent Effect | Activity (Rattus norvegicus [19]): -49 mmHg | Activity (Rattus norvegicus [20]): -22 mmHg | Activity (Rattus norvegicus [21]): Active | Activity (Rattus norvegicus [22]): 10% | Activity (Rattus norvegicus [23]): -86 mmHg | Activity (Rattus norvegicus [24]): Active | Activity (Rattus norvegicus [25]): Dose-Dependent Effect | Activity (Rattus norvegicus [26]): 1018 pmol/mL | Activity (Rattus norvegicus [27]): 97 pg/mL | Activity (Rattus norvegicus [28]): -19 mmHg | Activity (Rattus norvegicus [29]): 78%

Cc1nc2c(OCC3CCC3)cccn2c1C(=O)NCc1ccc(Cl)cc1
IC50 (Aorta): 840 nM | Drug metabolism [30]: Active | Drug metabolism (CHO): inactive | CLhep predicted [1]: 60 mL/min/kg | MEC [2]: 1 µM
